{"source": "patent US20220265845A1", "about": "“AMINOTHIOLESTER COMPOUNDS AND USES THEREOF” (ADVANCED BIODESIGN, priority 2019, published 2022)", "key": {"Human recombinant ALDH2": {"target": "T1, Human recombinant ALDH2 (Homo sapiens, UniProt P05091)", "T1 construct": "purchased Creative BioMart, NY, USA", "T1 sequence (P05091 18-517)": "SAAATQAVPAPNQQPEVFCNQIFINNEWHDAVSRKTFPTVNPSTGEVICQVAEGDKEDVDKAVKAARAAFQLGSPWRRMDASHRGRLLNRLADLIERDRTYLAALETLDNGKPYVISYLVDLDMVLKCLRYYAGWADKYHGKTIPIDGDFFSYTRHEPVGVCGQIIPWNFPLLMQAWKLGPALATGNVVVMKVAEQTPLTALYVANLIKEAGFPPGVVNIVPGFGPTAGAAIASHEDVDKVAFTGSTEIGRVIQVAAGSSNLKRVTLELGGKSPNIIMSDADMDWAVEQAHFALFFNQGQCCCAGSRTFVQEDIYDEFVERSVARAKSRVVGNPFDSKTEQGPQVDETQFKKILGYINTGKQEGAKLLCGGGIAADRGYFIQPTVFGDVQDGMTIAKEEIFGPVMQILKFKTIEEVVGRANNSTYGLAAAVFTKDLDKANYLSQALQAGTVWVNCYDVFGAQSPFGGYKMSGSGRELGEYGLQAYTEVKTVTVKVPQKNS", "assay": "Kinetic parameters and inhibition type from Kobs versus inhibitor concentration plots", "type": "biochemical", "settings": "from Kobs versus [I] plots", "description": "(§1) The kinetic data are expressed as the mean±standard error from three independent determination. Kinact/Ki was determined from Kobs versus concentration of the inhibitor [I] plots. […] The Kobs were obtained from negative exponential fit using non-linear regression program GraFit 5.0 (Erithacus software).\n(§2) To determine the inhibition mechanisms of the tested compounds for each isoenzyme, the corresponding Kobs were calculated as mentioned above, plotting product concentration vs time incubation of the enzymes with the test compounds at 300 μM, 200 μM, 100 μM, 50 μM, 20 μM and 10 μM. The kobs were obtained for each concentration of inhibitor tested, from the negative exponential fit using non-linear regression program GraFit 5.0 (Erithacus software). Finally, the kinetic parameter of kinact/KI was determined from the plot of kobs versus the corresponding concentration of inhibitor. The slope of the linear fit of data indicated the rate constant in μM^−1·min^−1."}, "[1]": {"target": "T2, Human recombinant ALDH1A1 (Homo sapiens, UniProt P00352)", "T2 construct": "purchased Creative BioMart, NY, USA", "T2 sequence (P00352 1-501)": "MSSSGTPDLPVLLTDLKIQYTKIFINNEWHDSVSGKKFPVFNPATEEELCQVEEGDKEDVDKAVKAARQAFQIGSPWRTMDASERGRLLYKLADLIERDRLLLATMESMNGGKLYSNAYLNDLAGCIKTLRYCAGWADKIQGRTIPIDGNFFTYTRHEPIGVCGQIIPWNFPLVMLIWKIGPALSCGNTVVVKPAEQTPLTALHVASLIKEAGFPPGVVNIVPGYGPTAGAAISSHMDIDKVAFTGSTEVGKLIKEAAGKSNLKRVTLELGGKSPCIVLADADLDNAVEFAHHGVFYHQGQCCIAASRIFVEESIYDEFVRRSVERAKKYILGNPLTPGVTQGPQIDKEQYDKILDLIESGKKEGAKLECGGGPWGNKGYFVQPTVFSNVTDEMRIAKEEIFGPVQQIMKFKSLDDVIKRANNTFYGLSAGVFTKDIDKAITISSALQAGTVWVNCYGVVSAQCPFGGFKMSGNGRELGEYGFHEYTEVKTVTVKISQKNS", "assay": "Kinetic parameters and inhibition type from Kobs versus inhibitor concentration plots", "type": "biochemical", "settings": "for kinact/KI: from Kobs versus [I] plots", "description": "as §1, §2"}, "[2]": {"tested_on": "ALDH class 1 recombinant enzymes", "assay": "Comparison with DIMATE on ALDH class 1 recombinant enzymes", "type": "biochemical, human", "settings": "from IC50 of Table 4", "description": "Human recombinant ALDH1A1, ALDH1 A2, ALDH1A3, ALDH2 (Creative BioMart, NY, USA) were prepared at 1 mg/mL. The enzymatic reactions were performed using saturating concentrations of substrate. To test the enzymatic activity of the enzymes, 10 μL of enzyme was added into a reaction buffer containing 50 mM HEPES pH 7.2, 30 mM MgCl2, plus 20 mM NAD^+ cofactor and 2 mM Hexanal (Sigma-Aldrich, St. Louis, Mo., USA) in the presence or absence of the different tested compounds. Internal standards were prepared with Nicotinamide adenine dinucleotide reduce form (NADH, 500 μM, Sigma-Aldrich) in Reaction Buffer (50 mM HEPES pH 7.2, 30 mM MgCl2).\nTime-dependent inhibition assays were performed for 0-2-5-10-15-20-30-45-60 min at 37° C. in 1 mL-quartz cuvette. The formation of NADH was monitored, reading samples at excitation wavelength=340 nm/emission wavelength=460 nm (fluorescence) for at least 600 sec using Cary Eclipse Varian fluorimeter.\nas §1"}, "HL-60": {"tested_on": "HL-60", "assay": "Cell viability assay (Resazurin), cytotoxicity in HL60 cells", "type": "cell-based", "settings": "Homo sapiens, HL-60, read-out: IC50 at 48 h, 48 hours of incubation", "description": "Cell lines. Leukemic cell line, HL-60 (derived from a person with AML-M2), was used for determination of drug efficacy. Cells were obtained from the European Collection of Cell Cultures (ECACC). All cells were cultivated in appropriate media according to supplier recommendations.\nCell Viability assay, 96-well format. Cells were seeded into 96-well cell culture plates at concentrations required to ensure approximately 80% confluence in control (untreated cells) at the end of experiment (0.5×10^4-5×10^4 cell/well).\nThe sensitivity towards compounds according to the invention was determined using different concentrations of each compound ranging from 0.5 to 100 μM (0.5, 1, 2, 5, 10, 15, 20, 25, 30, 40, 50, 100 μM). Following 48 hours of incubation at 37° C. in a humidified atmosphere containing 5% CO2, the growth-inhibitory effect of compounds was analyzed using Resazurin, according to manufactures instructions.\nTo ensure good data quality and to minimize impact of pipetting errors, each compounds concentration was assessed based on mean fluorescence intensity from 8 separate wells. Compounds response were quantified by the half maximal inhibitory concentration (IC50) for each particular cell line, and determined by non-linear regression analysis of log-dose/response curves.\nStatistical Analysis. Values were expressed as mean±SD or frequencies and proportions. Cell viability curves were determined using four parameter regression line. Differences between groups were determined by unpaired t test, Chi-square, Fisher's exact test or ANOVA, where appropriate. P<0.05 was considered statistically significant. Analysis was performed using GraphPad prism version 5.0 (GraphPad software, San Diego Calif. USA)."}}, "data": [{"smiles": "CSC(=O)C#CC(C)(C)N(C)C", "note": "[DIMATE, S-methyl 4-(dimethylamino)-4-methylpent-2-ynethioate, reference compound]", "values": [{"measurement": "kinact/KI", "setting": "Human recombinant ALDH2", "value": 7.08, "unit": "M⁻¹ s⁻¹"}, {"measurement": "ALDH1A1 Inhibition Type", "setting": "[1]", "value": "specific"}, {"measurement": "kinact/KI", "setting": "[1]", "value": 15, "unit": "M⁻¹ s⁻¹"}]}, {"smiles": "CSC(=O)C#CC(C)(C)N(C)CCOCc1ccccc1", "note": "[Example 3, S-methyl 4-[2-benzyloxyethyl(methyl)amino]-4-methyl-pent-2-ynethioate]", "values": [{"measurement": "Inhibition of the ALDH class 1 enzymes compared with DIMATE", "setting": "[2]", "value": "higher inhibition"}, {"measurement": "kinact/KI", "setting": "Human recombinant ALDH2", "value": 9, "unit": "M⁻¹ s⁻¹"}, {"measurement": "kinact/KI", "setting": "[1]", "value": 8.33, "unit": "M⁻¹ s⁻¹"}, {"measurement": "IC50", "setting": "HL-60", "value": 1.17, "unit": "µM"}]}, {"smiles": "CSC(=O)C#CC(C)(C)N(C)CCOCc1ccc(C)c(C)c1", "note": "[Example 5, S-methyl 4-[2-[(3,4-dimethylphenyl)methoxy]ethyl-methyl-amino]-4-methyl-pent-2-ynethioate]", "values": [{"measurement": "Inhibition of the ALDH class 1 enzymes compared with DIMATE", "setting": "[2]", "value": "higher inhibition"}, {"measurement": "kinact/KI", "setting": "Human recombinant ALDH2", "value": 40.8, "unit": "M⁻¹ s⁻¹"}, {"measurement": "kinact/KI", "setting": "[1]", "value": 61.7, "unit": "M⁻¹ s⁻¹"}, {"measurement": "IC50", "setting": "HL-60", "value": 4.72, "unit": "µM"}]}]}
